Assay results from PubChem BioAssay AID2619 (Sanford-Burnham Center for Chemical Genomics, 2010).

Test system: MDA-MB-435 TRAIL sensitization, ATPlite luminescence, 24 h
Experiment: PubChem AID 2619

**Q.** For `CSc1nc(-c2ccc(C)cc2)nc(C(Cl)Cl)n1`, which cytotoxicity with TRAIL (at 10 µM (top of the series)) is on record?
**A.** 82%

**Q.** What about the cytotoxicity (compound alone without TRAIL, at 10 µM, stronger effect = higher value) of the same compound?
**A.** 1%
